Experiments:
D1 receptor = assay: D1 agonist-induced phosphorylation of PKA substrates in striatal slices; format: cell-based, mouse; conditions: 1 μM, 10 min
Protocol: Dopamine achieves many of its effects in neurons by activation of the D1 class of dopamine receptors, which are positively coupled to the activation of PKA. […] For this purpose, the state of phosphorylation of GluR1, DARPP-32, ARPP-21, and ARPP-16 was determined using phosphorylation state-specific antibodies. […] No significant difference was observed between wildtype and p35^−/− mice in basal levels of phosphorylation of any of these substrates.

Cdk5 [1] = assay: Cdk5 mRNA and protein levels in striatum after chronic cocaine; format: in vivo, rat
Text: FIGS. 8A-8C show the increased expression of Cdk5 in inducible transgenic mice overexpressing ΔFosB and in rats chronically treated with cocaine. […] The positions of oligonucleotides encoding ΔFosB and Cdk5 are indicated. […] Representative labelings are shown for sections from inducible transgenic mice on (Dox) or off doxycycline (H2O) (left) and rats treated chronically with saline or cocaine (right). Quantitation of signals in the caudatoputaman (CP) and nucleus accumbens (NA) are shown. […] Representative Cdk5 immunoblots of striatal tissue dissected from inducible transgenic mice on or off doxycycline (left) and from rats treated chronically with saline or cocaine (right) are shown with quantitation. Data represent means ±SEM for n=6; *p<0.05 compared to control, Student's t test.
ΔFosB-inducible transgenic mice were either fed […] doxycycline or denied doxycycline for 12 weeks. Adult male Sprague-Dawley rats initially weighing between 160-240 g were injected with cocaine or vehicle (i.p., 20 mg/kg, […]) at the same time each day for 8 days. All analyses were initiated 12 hr after the final dose. For in situ hybridization studies, [α-^35S]UTP-labeled riboprobes were prepared by in vitro transcription from cDNA clones corresponding to full-length clones of rat Cdk5 [Zheng et al., J. Neurobiol. 35:141-159 (1998)]. Cryostat sections were prepared and hybridized as previously described. After hybridization, the sections were exposed to Biomax MR film (Kodak) for 2-6 days. All autoradiograms were analyzed with a Microcomputer Imaging Device system (M4, Imaging Research, Inc.) as described elsewhere [Le Moine and Bloch, J. Comp. Neurol. 355:418426 (1995)]. Statistical analyses of the data were performed using two-tailed unpaired Student's t test. Striatal tissue was rapidly dissected on ice and homogenized in boiling lysis buffer containing 1% SDS and 50 mM sodium flouride with sonication. Striatal slice preparation and treatment were conducted as previously described [Example 1, Bibb et al., Nature 402:669-671 (1999); Nishi et al., J. Neurosci 17:8147-8155 (1997)]. […]

Cdk5 [2] = assay: Cocaine-induced locomotor activity with intra-accumbens infusion of Cdk5 inhibitors; format: in vivo, rat; conditions: rats, intra-accumbens 40 nmol/0.5 μl
Protocol: Doses of cocaine hydrochloride (15 mg/kg i.p. in sterile 0.9% sodium chloride) were chosen to produce a moderate response to cocaine over successive days. […] Drugs were dissolved in sterile phosphate buffered saline containing 50% DMSO. Intracerebral microinfusions were made bilaterally in volumes of 0.5 μl over a period of 2 min with an additional 2 min allowed to elapse prior to removal of the infusion needles and replacement of the stylettes. […] Drugs were given at the same time each day. Subjects were then placed into the chambers and activity was monitored for 60 min.

mouse striatal slices = assay: Phosphorylation of PKA substrates in striatal slices treated with roscovitine; conditions: 10 μM, 1 h
[3] = test system: dissociated striatal neurons; assay: Whole-cell voltage-gated Ca2+ current, patch-clamp of dissociated striatal neurons; format: cell-based, mouse; conditions: 10 μM
Protocol: The physiological consequence of PKA inhibition by phospho-Thr75 DARPP-32 was also assessed. […] Opin. Neurobiol. 8:330-334 (1998)], were analyzed using patch-clamp recordings of dissociated striatal neurons (FIGS. 3g and 3h). […] This effect was virtually abolished in neurons from DARPP-32 knockout mice (1.6±0.3%, n=5, p<0.01, paired t test).

[4] = rats, 20 mg/kg i.p. daily for 8 days, in situ hybridization

## Oc1cc2c(c(Cl)c1O)CCNCC2c1ccccc1 (stereo not drawn) [SKF 81297]
D1 receptor; p35−/− mouse striatal slices, versus wildtype
  phosphorylation of GluR1, DARPP-32, ARPP-21 and ARPP-16 (PKA sites): to an even greater extent
D1 receptor; wildtype mouse striatal slices
  phosphorylation of GluR1, DARPP-32, ARPP-21 and ARPP-16 (PKA sites): increased

## COC(=O)[C@H]1[C@@H](OC(=O)c2ccccc2)C[C@@H]2CC[C@H]1N2C [cocaine]
Cdk5 [1]; rats exposed chronically, immunoblot
  Cdk5 protein levels in striatal tissue versus control: 180±20%
Cdk5 [1]; [4]
  Cdk5 mRNA levels in caudatoputamen versus saline: 151.8±11.8%
  Cdk5 mRNA levels in nucleus accumbens versus saline: 150.5±10.0%

## Cn1cnc2nc(NCCO)nc(NCc3ccccc3)c21 [iso-olomoucine]
Cdk5 [2]
  locomotor or stereotypic responses to cocaine: failed to enhance

## CC[C@H](CO)Nc1nc(NCc2ccccc2)c2ncn(C(C)C)c2n1 [roscovitine]
Mouse striatal slices; striatal slices from DARPP-32−/− mice
  increase in phospho-Ser845 GluR1: not observed
Mouse striatal slices; striatal slices
  Total GluR1 levels: unaffected
Mouse striatal slices; wildtype mouse striatal slices
  increase in phosphorylation of ARPP-16 (phospho-Ser88): 2.5±0.2 fold
  increase in phosphorylation of GluR1 (phospho-Ser845): 3.2±0.5 fold
[3]; neurons from DARPP-32 knockout mice
  enhancement of whole-cell Ca2+ current: 1.6±0.3%
[3]; wildtype neurons
  enhancement of whole-cell Ca2+ current: 9.7% ±1.0%

Reference: patent publication US6989362B1, “Methods of treating dopamine dysregulation using agents that regulate phosphorylation/dephosphorylation in dopamine signaling” (The Rockefeller University, priority 1999, dated 2006)
